Measured values reported in PubChem BioAssay AID449764 (Southern Research Specialized Biocontainment Screening …, 2010).

The molecules below were run on Mycobacterium tuberculosis H37Rv growth inhibition, no glycerol (assay: Mycobacterium tuberculosis H37Rv growth inhibition, no glycerol, confirmatory dose response (AID 449764;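 note: growth read after 7 days of incubation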)). Conditions: measured here: IC90 growth inhibition.

Row | SMILES | IC90
1 | C[n+]1c(-c2ccccc2)c2cc(N)ccc2c2ccc(N)cc21 | 20.9 µM
2 | N#Cc1c([N+](=O)[O-])cc([N+](=O)[O-])cc1S(=O)(=O)Cc1ccccc1 | 25.9 µM
3 | O=C(Nc1cccnc1Cl)c1cc(-c2ccco2)on1 | > 100 µM
4 | COC(=O)c1ccc(/C=C/c2c(-c3ccsc3)oc3ccc(N4CCOCC4)cc23)cc1 | 53.6 µM
5 | CC(=O)c1ccc(Sc2nnnn2-c2ccccc2)c([N+](=O)[O-])c1 | 31.8 µM
6 | Cn1ccc(=Nc2ccc(NC(=O)c3ccc(N=c4ccn(C)c5ccc([N+](=O)[O-])cc45)cc3)cc2)cc1 | < 0.2 µM
7 | Cc1cc(-c2c(C)[nH]n(-c3ccccc3)c2=O)n[nH]1 | > 100 µM
8 | O=C1CCc2ccc(OCCCCN3CCN(c4cccc(Cl)c4Cl)CC3)cc2N1 | > 100 µM
9 | CC1=NN(c2ccccc2)C(=O)/C1=C\c1c(C)[nH]n(-c2ccccc2)c1=O | > 100 µM
10 | O=C(CCS(=O)(=O)c1ccc(F)cc1)Nc1nc(-c2ccccn2)cs1 | 29.1 µM
11 | CC(C)(C)c1ccc(Cn2c(=N)n(CC(O)c3ccco3)c3ccccc32)cc1 (stereo not given) | 25.6 µM
12 | CCc1ccc2oc(-c3cc(N=Cc4cccc(OC)c4O)ccc3O)nc2c1 | 95 µM
13 | O=[N+]([O-])c1cn(-c2nc(-c3ccco3)cc(C(F)(F)F)n2)cn1 | > 100 µM
14 | CN1C(C(=O)NCc2ccc(OC(F)(F)F)cc2)CC2Cn3c(nc4cc(Cl)c(Cl)cc43)C21 (stereo not given) | 70.4 µM
15 | O=C1C(SCCO)=C(SCCO)C(=O)c2ccccc21 | 12 µM
16 | Cn1cnnc1SCc1ccc(C(=O)N=Nc2c(O)n(Cc3ccc(Cl)cc3)c3ccccc23)cc1 | 3.38 µM
17 | CCN(CC)CCNC(=O)c1ccc(NC(=O)c2cn(-c3ccccc3)nc2-c2cccs2)cc1 | 27.6 µM
18 | Oc1ccccc1/C=N/Nc1ccnc(SCc2ccccc2)n1 | 2.95 µM
19 | Cc1cc(C)c(C(N)=O)c(SCC(=O)c2ccc(Cl)cc2)n1 | > 100 µM
20 | COC(=O)[C@H](CCSC)NC(=O)N1CCN(c2cccc(C(F)(F)F)c2)CC1 | 58.8 µM
21 | Cc1ccc(NC(=O)CCl)cc1S(=O)(=O)N1CCCCCC1 | 14.8 µM
22 | Cc1ccc(C)c(NC(CC(=O)c2ccccc2)C(=O)OCC(=O)c2cccs2)c1 (stereo not given) | 11.7 µM

Row | SMILES | IC90
23 | CCOC(=O)c1[nH]c2ccc(F)cc2c1NC(=O)CN1CCN(C/C=C/c2ccccc2)CC1 | 42.8 µM
24 | CCN(CC)c1ccc(/C=C2\SC(=O)N(C(C)C)C2=O)o1 | 4.69 µM
25 | Cc1ccc(C)c(N/C(N)=N/c2nc(C)cc(C)n2)c1 | 12.7 µM
26 | c1ccc(-c2c3ccccc3nc3[nH]c4ccccc4c23)cc1 | > 100 µM
27 | CCOC(=O)CSc1nnc(SCCN2C(=O)c3ccccc3C2=O)s1 | 22.4 µM
28 | O=C(NCCCN1CCOCC1)c1cc2c([nH]c3ccccc32)c(-c2cccc(Br)c2)n1 | 24.3 µM
29 | O=C(NC1CCCCC1)C(c1cccs1)N(CCCN1CCOCC1)C(=O)c1ccc(-c2ccccc2)[nH]1 (stereo not given) | 86.4 µM
30 | COc1ccc2nc(NC(=O)C3CCCN(S(=O)(=O)c4cccs4)C3)sc2c1 (stereo not given) | 24.2 µM
31 | CCc1nnc(NC(=O)CN2CCN(c3nc(-c4ccccc4)cs3)CC2)s1 | 92.6 µM
32 | CCOC(=O)CSc1nnc(-c2ccc(S(=O)(=O)NCc3cccs3)cc2)o1 | 7.29 µM
33 | Nc1cc([N+](=O)[O-])cc2oc(-c3ccccc3)cc12 | > 100 µM
34 | CCCC1CC(C)(c2csc(Nc3ccc(OCC)cc3)n2)OC1=O (stereo not given) | 44.9 µM
35 | O=C(Cc1ccccc1)N/N=C/c1ccc2cccc(O)c2n1 | 12.6 µM
36 | CCCC(=O)OCCNc1cc(SCCC(=O)OC)c2nonc2c1[N+](=O)[O-] | 6.66 µM
37 | O=C(C1CCCN(c2ncnc3c2nc2n3CCCCC2)C1)N1CCN(c2ccc(Cl)cc2)CC1 (stereo not given) | 51 µM
38 | CCOC(=O)c1cc(C)nc(Sc2ccc(C)cc2)c1C#N | 7.74 µM
39 | CCOC(=O)c1cc(-c2ccccc2)nc2c1c(C)nn2-c1ccccn1 | 44.3 µM
40 | COc1ccc(C(=O)OCCNC(=O)c2c(Cl)nc3ccccn23)cc1 | 10.6 µM
41 | C=CCNCC(=O)N1N=C(c2ccc3ccccc3c2)CC1c1ccc(OC)cc1 (stereo not given) | 23.3 µM
42 | CCCOC(=O)CSc1nc(N2CCOCC2)c2c(c1C#N)CC(C)(C)OC2 | 42.5 µM
43 | CC1CCCC(C)N1C(=O)COC(=O)c1cc(-c2cccs2)nn1-c1ccccc1 (stereo not given) | 86.3 µM
44 | CC(C)NC(=O)c1sc(=S)n2c1[nH]c(=O)c1ccc(C(=O)NCCc3ccc(Cl)cc3)cc12 | 0.83 µM

Row | SMILES | IC90
45 | Cc1[nH]c2ccc(OC(F)(F)F)cc2c1CCNCc1ccc(Cl)cc1 | 18.8 µM
46 | Cc1nn(-c2ccccc2)c(N)c1C(c1ccc(C(C)C)cc1)c1c(C)nn(-c2ccccc2)c1N | 25.8 µM
47 | Cc1nn(CCc2nn[nH]n2)c2nc(-c3ccc(Br)cc3)cc(C(F)(F)F)c12 | 16.8 µM
48 | Cc1ccc(Nc2nc(N)nc(CN3CCc4ccccc4C3)n2)cc1 | 18.6 µM
49 | COc1ccc(-c2ccc(OC)c([C@H]3[C@@H]4C=CCC[C@@]4(C)C(=O)N3Cc3ccccc3)c2)cc1OC | > 100 µM
50 | CCCCCC(O)c1cccc(OCc2ccc3ccccc3n2)c1 (stereo not given) | 56 µM
51 | CCN1/C(=C/C=C/c2oc3ccc(-c4ccccc4)cc3[n+]2CC)Oc2ccc(-c3ccccc3)cc21 | 6.37 µM
52 | CC(C)CNc1nnnc2c1sc1nc(N3CCOCC3)c3c(c12)CC(C)(C)SC3 | > 100 µM
53 | CC[n+]1c(/C=C/N(C)c2ccccc2)n(-c2ccccc2)c2ccc(-c3nc4ccccc4s3)cc21 | 1.36 µM
54 | COc1ccc(C(C[N+](=O)[O-])c2c(-c3ccccc3)cc3ccccn23)c(OC)c1 (stereo not given) | 51.8 µM
55 | CC1(C)Cc2c(sc(NC(=O)c3ccc(C(=O)c4ccccc4)cc3)c2C(N)=O)C(C)(C)N1 | > 50 µM
56 | COC(=O)CSc1nnc(-c2sc3cc(OC)ccc3c2Cl)n1C | > 50 µM
57 | COC(=O)c1c(NC(=O)CCl)sc(C(=O)N2CCOCC2)c1C | 23.1 µM
58 | Cc1ccc(-n2c(Cl)c(Cl)nc(Cl)c2=O)cc1 | 24.8 µM
59 | Cc1cc(=O)oc2c(C)c(OCC(=O)N3CCN(C(=O)C4COc5ccccc5O4)CC3)ccc12 (stereo not given) | > 100 µM
60 | CCN1/C(=C/c2ccc3cc(C)ccc3[n+]2CC)Sc2ccccc21 | 3.07 µM
61 | Cn1nc(C(C)(C)C)cc1NC(=O)Nc1cc(Cl)cc(Cl)c1 | 25.6 µM
62 | CCCCOC(=O)NS(=O)(=O)c1sc(CC(C)C)cc1-c1ccc(Cn2c(CC)nc3c(C)cc(C)nc32)cc1 | 47.2 µM
63 | CCOc1ccc(-c2cc(CCCC(=O)NCCC(C)C)no2)cc1 | 25.7 µM
64 | Cc1ccc(NC(=O)COc2ccccc2CNC(C)(C)CC(C)(C)C)cc1 | 36.2 µM
65 | CN(C(=O)COC(=O)c1sc2ccccc2c1Cl)C1CCCCC1 | 14.2 µM
66 | Clc1ccc(NNc2ccnc3cc(Cl)ccc23)cc1 | 19.9 µM

Row | SMILES | IC90
67 | COC(=O)CC(=O)N1CCN(c2ccc(Cl)c(Cl)c2)CC1 | 74.8 µM
68 | C=CC[n+]1ccn(-c2nc3ccccc3nc2[N-]S(=O)(=O)c2cccs2)c1 | 48.1 µM
69 | C/C(=N\Nc1nc2c(s1)CCCC2)c1ccccc1 | 47.2 µM
70 | CN1CC=C(/C=C/c2ccc(-c3ccccc3)cc2)CC1 | 28 µM
71 | CCN(CC)c1ccc2nc3ccccc3[n+](CC)c2c1 | 5.55 µM
72 | Cc1cc(NC(=O)CCl)no1 | 5.19 µM
73 | NC(=S)N/N=C/c1ccc(-c2ccccc2)o1 | 90.7 µM
74 | CCOC(=O)C1(CCOc2ccccc2)CCN(Cc2cccc(-n3cccn3)c2)CC1 | 34.5 µM
75 | C/C(CC(=O)Nc1ccc(Cl)cc1C(F)(F)F)=N\NC(N)=S | 20.1 µM
76 | O=C(c1ccccc1)C1CN(Cc2ccccc2)CCC1(O)c1ccccc1 (stereo not given) | 21.8 µM
77 | O=[N+]([O-])c1ccc(O)c(-c2cc(C(F)(F)F)nc(-c3ccccc3)n2)c1 | 22.1 µM
78 | COc1ccc(-c2cn3cc([N+](=O)[O-])ccc3n2)cc1OC | > 50 µM
79 | CCOC(=O)[C@@H]1[C@H]2COc3cc(OC)ccc3[C@H]2N2C(=O)N(c3ccc(C(F)(F)F)cc3)C(=O)[C@]12C | 6.27 µM
80 | CC1CC(C)CN(C(=O)C2CCC(CNc3c(N4CCCCC4)c(=O)c3=O)CC2)C1 (stereo not given) | > 100 µM
81 | CN(C)C1(CNC(=O)Nc2ccc(Cl)c(Cl)c2)CCCCC1 | 13.1 µM
82 | Cc1cccc(NS(=O)(=O)c2ccc(C(=O)N3CCN(c4ccccc4O)CC3)cc2)c1C | > 100 µM
83 | O=C(C=C=Nc1ccccc1)C(=O)N=C=Cc1ccccc1 | 20.5 µM
84 | COc1ccccc1N1CCN(/N=C/C(Cl)=C/c2ccccc2)CC1 | > 100 µM
85 | O=C(/C=C/c1ccc([N+](=O)[O-])cc1)NC1CC2CCC1C2 (stereo not given) | > 100 µM
